In patent US20100016232A1, “Treatment Of Inflammatory Diseases With Mammal Beta Defensins” (Novozymes A/S, priority 2008, published 2010):
Marks after values point to notes of the source that are not given here. Where no end group is shown, it is not given here.

What was measured:
[1] = tested on: IL-1β secretion from PBMC; assay: IL-1β secretion from PBMC, ELISA; assay type: cell-based, human
Procedure: (§1) Peripheral blood was drawn from healthy volunteers (with approval from the relevant ethical committee in Denmark). Heparinized blood was diluted 1/1 v/v with RPMI and were subjected to Ficoll density centrifugation within 2 h of drawing. Plasma was collected from the top from individual donors and was kept on ice until it was used at 2% in the culture medium (autologous culture medium). Isolated PBMC were resuspended in autologous culture medium and seeded in 96-well culture plates with 255.000 cells per well in a total of 200 μl. […] The concentrations used for stimulation were optimized on 3 different donors in initial experiments, for LPS two different concentrations were used to be sure to be on a cytokine level that is possible to modulate. In some experiments PBMC were treated with Dexamethason and Indomethacin alone and together with LPS or LTA as a control on downregulation of inflammatory cytokines. The supernatants were collected after incubation at 37° C. for 24 hours, and stored at −80° C. until cytokine measurement. Viability was measured by Alamar Blue (Biosource, DALL 1100) in all experiments and in some cases also by MTS (Promega) according to manufacturer's instruction and was in some experiments also judged by counting of the cells by a Nucleocounter.
(§2) Cytokine production in supernatants was measured by flow cytometry with a human inflammation cytometric bead array (CBA) according to manufacturer's instructions (BD) on a FACSarray flow cytometer. The following cytokines were measured: IL-8, IL-1β, IL-10, TNF, IL-12 p70, IL-6. In some experiments, cytokines were measured by ELISA kits from R&D systems (IL-10, TNF-α, IL-1β) according to the manufacturer' instruction.
(§3) In Tables 6, 7 and 8, supernatants from another donor were analysed for cytokines by ELISA instead of by a cytometric bead array by flowcytometry and here the same were observed, although the sensitivity of the assay is lower and the detection limit much higher and therefore the effects were not as significant.

PBMC = PBMC viability, MTS assay; assay type: cell-based, human; conditions: 24 h
Procedure: as §1

[2] = tested on: collagen-induced arthritis (CIA) in the mouse; assay: Collagen-induced rheumatoid arthritis model, clinical arthritis score; assay type: in vivo; design: key: each paw scored 0-4 by ascending severity; total summed over paws
Procedure: All animals were subjected on Day 0 of the study (study commencement) to an intradermal injection into the tail of 0.1 ml Type II Collagen/CFA emulsion (200 μg collagen per mouse) under light Isoflurane anesthesia, using a plastic syringe. The location of injection was at an approximate caudal distance of about 1 cm from the base of the tail. A collagen challenge (200 μg/mouse) was presented to the animals by IP injection of collagen and PBS on Day 21.
Treatments were commenced on day 14 of the study and continued once daily throughout. All surviving mice were terminated on study day 42.
Mice were examined for signs of arthritogenic responses in peripheral joints on study day 0, 14, 21 and thereafter five times weekly until termination of the study. Arthritis reactions were reported for each paw according to a 0-4 scale in ascending order of severity as shown below:
In accordance with Home Office regulations mice with a total clinical score of equal to or greater than 12 were culled due to arthritis severity. The clinical score of these mice at termination was carried forward in the analysis for the remainder of the study in order that the data was not artificially skewed by the removal of high scoring mice.

[3] = tested on: DSS-induced colitis in the mouse; assay: 10-day DSS-induced colitis, colon histological score (Example 5); assay type: in vivo; conditions: day 10
From the text: Animals were divided into 5 experimental groups.
Their colons were removed and their length and weight measured after exclusion of the caecum.
Two sections (proximal and distal) of colon were taken from each animal and preserved in neutral buffered formalin for subsequent histological analysis (haematoxylin and eosin staining) according to the following scoring system:
Two sections (proximal and distal) of colon were taken from each animal, processed for histological analysis (haematoxylin and eosin staining) and scored by a blind observer according to the histological scoring system described above.

[4] = tested on: IL-10 secretion from PBMC; assay: IL-10 secretion from PBMC, ELISA; assay type: cell-based, human
Procedure: as §1, §2, §3

hBD2: human beta defensin 2, SEQ ID NO:2; produced recombinantly in E. coli (Example 1); hBD2 of Tables 16-18 was prepared by chemical synthesis (GIGDPVTCLKSGAICHPVFCPRRYKQIGTCGLPGTKCCKKP; ends and bridges not checked; cysteine pairing not given here; listed as Homo sapiens)
IL-1β ([1]; LPS 0.6 ng/ml, hBD2 1 μg/ml): 0.237 ng/mL | IL-1β ([1]; LPS 0.6 ng/ml, hBD2 10 μg/ml): 0.268 ng/mL | IL-1β ([1]; LPS 0.6 ng/ml, hBD2 100 μg/ml): 0.275 ng/mL | IL-1β ([1]; LPS 20 ng/ml, hBD2 1 μg/ml): 0.638 ng/mL | IL-1β ([1]; LPS 20 ng/ml, hBD2 10 μg/ml): 0.354 ng/mL | IL-1β ([1]; LPS 20 ng/ml, hBD2 100 μg/ml): 0.395 ng/mL | IL-1β ([1]; LTA 1.25 μg/ml, hBD2 1 μg/ml): 0.224 ng/mL | IL-1β ([1]; LTA 1.25 μg/ml, hBD2 10 μg/ml): 0.193 ng/mL | IL-1β ([1]; LTA 1.25 μg/ml, hBD2 100 μg/ml): 0.281 ng/mL | Viability, MTS (PBMC; LPS 0.6 ng/ml, hBD2 1 μg/ml): 1.5 Abs 490 nm | Viability, MTS (PBMC; LPS 0.6 ng/ml, hBD2 10 μg/ml): 2.0 Abs 490 nm | Viability, MTS (PBMC; LPS 0.6 ng/ml, hBD2 100 μg/ml): 1.6 Abs 490 nm | Viability, MTS (PBMC; LPS 20 ng/ml, hBD2 1 μg/ml): 1.6 Abs 490 nm | Viability, MTS (PBMC; LPS 20 ng/ml, hBD2 10 μg/ml): 1.8 Abs 490 nm | Viability, MTS (PBMC; LPS 20 ng/ml, hBD2 100 μg/ml): 1.9 Abs 490 nm | Viability, MTS (PBMC; Medium, hBD2 1 μg/ml): 1.3 Abs 490 nm | Viability, MTS (PBMC; Medium, hBD2 10 μg/ml): 1.5 Abs 490 nm | Viability, MTS (PBMC; Medium, hBD2 100 μg/ml): 1.2 Abs 490 nm | Mean total arthritis score, peak ([2]; 0.1 mg/kg i.v. once daily from day 14 (Group E), study day 40): 9.0±0.77 | Mean total arthritis score, peak ([2]; 1 mg/kg i.v. once daily from day 14 (Group D), study day 41): 5.2±1.11 | Mean total arthritis score, peak ([2]; 10 mg/kg i.v. once daily from day 14 (Group C), study day 40): 5.0±1.04 | Mean Arthritic Score ([2]; Group C, 10 mg/kg IV once daily, Study Day 0): 0.0 | Mean Arthritic Score ([2]; Group C, 10 mg/kg IV once daily, Study Day 14): 1.7 | Mean Arthritic Score ([2]; Group C, 10 mg/kg IV once daily, Study Day 21): 3.1 | Mean Arthritic Score ([2]; Group C, 10 mg/kg IV once daily, Study Day 22): 4.3 | Mean Arthritic Score ([2]; Group C, 10 mg/kg IV once daily, Study Day 23): 3.3 | Mean Arthritic Score ([2]; Group C, 10 mg/kg IV once daily, Study Day 26): 4.1 | Mean Arthritic Score ([2]; Group C, 10 mg/kg IV once daily, Study Day 27): 4.1 | Mean Arthritic Score ([2]; Group C, 10 mg/kg IV once daily, Study Day 28): 4.1 | Mean Arthritic Score ([2]; Group C, 10 mg/kg IV once daily, Study Day 29): 4.4 | Mean Arthritic Score ([2]; Group C, 10 mg/kg IV once daily, Study Day 30): 4.9 | Mean Arthritic Score ([2]; Group C, 10 mg/kg IV once daily, Study Day 33): 4.8 | Mean Arthritic Score ([2]; Group C, 10 mg/kg IV once daily, Study Day 34): 4.9 | Mean Arthritic Score ([2]; Group C, 10 mg/kg IV once daily, Study Day 35): 4.9 | Mean Arthritic Score ([2]; Group C, 10 mg/kg IV once daily, Study Day 36): 4.8 | Mean Arthritic Score ([2]; Group C, 10 mg/kg IV once daily, Study Day 37): 4.7 | Mean Arthritic Score ([2]; Group C, 10 mg/kg IV once daily, Study Day 40): 5.0 | Mean Arthritic Score ([2]; Group C, 10 mg/kg IV once daily, Study Day 41): 4.8* | Mean Arthritic Score ([2]; Group D, 1 mg/kg IV once daily, Study Day 0): 0.0 | Mean Arthritic Score ([2]; Group D, 1 mg/kg IV once daily, Study Day 14): 0.6 | Mean Arthritic Score ([2]; Group D, 1 mg/kg IV once daily, Study Day 21): 2.1 | Mean Arthritic Score ([2]; Group D, 1 mg/kg IV once daily, Study Day 22): 2.3 | Mean Arthritic Score ([2]; Group D, 1 mg/kg IV once daily, Study Day 23): 2.0 | Mean Arthritic Score ([2]; Group D, 1 mg/kg IV once daily, Study Day 26): 2.0 | Mean Arthritic Score ([2]; Group D, 1 mg/kg IV once daily, Study Day 27): 2.0 | Mean Arthritic Score ([2]; Group D, 1 mg/kg IV once daily, Study Day 28): 2.3 | Mean Arthritic Score ([2]; Group D, 1 mg/kg IV once daily, Study Day 29): 2.4 | Mean Arthritic Score ([2]; Group D, 1 mg/kg IV once daily, Study Day 30): 2.7 | Mean Arthritic Score ([2]; Group D, 1 mg/kg IV once daily, Study Day 33): 4.0 | Mean Arthritic Score ([2]; Group D, 1 mg/kg IV once daily, Study Day 34): 4.1 | Mean Arthritic Score ([2]; Group D, 1 mg/kg IV once daily, Study Day 35): 4.0 | Mean Arthritic Score ([2]; Group D, 1 mg/kg IV once daily, Study Day 36): 4.1 | Mean Arthritic Score ([2]; Group D, 1 mg/kg IV once daily, Study Day 37): 4.2 | Mean Arthritic Score ([2]; Group D, 1 mg/kg IV once daily, Study Day 40): 4.7* | Mean Arthritic Score ([2]; Group D, 1 mg/kg IV once daily, Study Day 41): 5.2 | Mean Arthritic Score ([2]; Group E, 0.1 mg/kg IV once daily, Study Day 0): 0.0 | Mean Arthritic Score ([2]; Group E, 0.1 mg/kg IV once daily, Study Day 14): 1.2 | Mean Arthritic Score ([2]; Group E, 0.1 mg/kg IV once daily, Study Day 21): 3.2 | Mean Arthritic Score ([2]; Group E, 0.1 mg/kg IV once daily, Study Day 22): 3.6 | Mean Arthritic Score ([2]; Group E, 0.1 mg/kg IV once daily, Study Day 23): 3.2 | Mean Arthritic Score ([2]; Group E, 0.1 mg/kg IV once daily, Study Day 26): 3.7 | Mean Arthritic Score ([2]; Group E, 0.1 mg/kg IV once daily, Study Day 27): 4.1 | Mean Arthritic Score ([2]; Group E, 0.1 mg/kg IV once daily, Study Day 28): 4.4 | Mean Arthritic Score ([2]; Group E, 0.1 mg/kg IV once daily, Study Day 29): 5.0 | Mean Arthritic Score ([2]; Group E, 0.1 mg/kg IV once daily, Study Day 30): 5.9 | Mean Arthritic Score ([2]; Group E, 0.1 mg/kg IV once daily, Study Day 33): 7.3 | Mean Arthritic Score ([2]; Group E, 0.1 mg/kg IV once daily, Study Day 34): 7.8 | Mean Arthritic Score ([2]; Group E, 0.1 mg/kg IV once daily, Study Day 35): 8.0 | Mean Arthritic Score ([2]; Group E, 0.1 mg/kg IV once daily, Study Day 36): 8.2 | Mean Arthritic Score ([2]; Group E, 0.1 mg/kg IV once daily, Study Day 37): 8.7 | Mean Arthritic Score ([2]; Group E, 0.1 mg/kg IV once daily, Study Day 40): 9.0 | Mean Arthritic Score ([2]; Group E, 0.1 mg/kg IV once daily, Study Day 41): 8.8 | Histology Score Distal Colon ([3]; 0.1 mg/kg i.v. daily): 3.67 | Histology Score Distal Colon ([3]; 1 mg/kg i.v. daily): 4.13 | Histology Score Distal Colon ([3]; 10 mg/kg i.v. daily): 4.78 | IL-10 ([4]; LPS 0.6 ng/ml, hBD2 10 μg/ml): 0.04 ng/mL | IL-10 ([4]; LPS 0.6 ng/ml, hBD2 100 μg/ml): 0.14 ng/mL | IL-10 ([4]; LPS 20 ng/ml, hBD2 10 μg/ml): 0.34 ng/mL | IL-10 ([4]; LPS 20 ng/ml, hBD2 100 μg/ml): 0.46 ng/mL
